In US20240300886A1, “ARYLCYCLOHEXYLAMINE DERIVATIVES AND THEIR USE IN THE TREATMENT OF PSYCHIATRIC DISORDERS” (GILGAMESH PHARMACEUTICALS, INC., priority 2021, published 2024):

How the values were obtained:
[1] = molecular target: MK-801 binding site of the N-methyl-D-aspartate receptor (NMDAR); experiment: NMDA receptor radioligand binding with [3H]MK-801; parameters: species or system Wistar rat; conditions: [3H]MK-801 displacement, Wistar rat brain (minus cerebellum); read-out: NMDAR Ki (95% CI)
Method: The binding affinities of disclosed compounds at the MK-801 binding site of the N-methyl-D-aspartate receptor (NMDAR) were determined in radioligand binding experiments (Table 13).
Radioligand Binding. Affinity of the test compounds for NMDAR was determined in radioligand binding experiments with [^3H]MK-801 by Eurofins Panlabs, Inc., using methods adapted from the literature (Javitt el al. 1987; Reynolds et al. 1989) and under the conditions described in Table 14.

[2] = Metabolic stability in human liver microsomes (HLM); type: in vitro ADME; conditions: 0.50 mg protein/mL, NADPH
Method: (§1) HLM Stability. Pooled HLM from adult male and female donors (Corning 452117) were used. Microsomal incubations were carried out in multi-well plates. Liver microsomal incubation medium consisted of PBS (100 mM, pH 7.4), MgCl2 (1 mM), and NADPH (1 nmM), with 0.50 mg of liver microsomal protein per mL. Control incubations were performed by replacing the NADPH-cofactor system with PBS. Test compounds (1 μM, final solvent concentration 1.0%) were incubated with microsomes at 37° C. with constant shaking, Six time points over 60 minutes were analyzed, with 60 μL aliquots of the reaction mixture being drawn at each time point. The reaction aliquots were stopped by adding 180 μL of cold (4° C.) acetonitrile containing 200 ng/mL tolbutamide and 200 ng/mL labetalol as internal standards (IS), followed by shaking for 10 minutes, and then protein sedimentation by centrifugation at 4,000 rpm for 20 minutes at 4° C. Supernatant samples (80 μL) were diluted with water (240 μL) and analyzed for parent compound remaining using a fit-for-purpose liquid chromatography-tandem mass spectrometry (LC-MS/MS) method.
(§2) Data Analysis. The elimination constant (kel), half-life (t1/2) and intrinsic clearance (Clint) were determined in a plot of […] versus time, using linear regression analysis.

[3] = Metabolic stability in dog liver microsomes (DLM); type: in vitro ADME, beagle dogs; conditions: male, beagle, dog, pooled dog liver microsomes, pH 7.4, 1 μM compound, 0.50 mg protein/mL, NADPH
Method: as §1, with “DLM” for “HLM”, “from” for “from adult”, “beagle dogs (XenoTech D1000)” for “and female donors (Corning 452117)”, “mM),” for “nmM),”, “shaking.” for “shaking,”, “([…]),” for “(IS),”
as §2

[4] = Metabolic stability in cynomolgus monkey liver microsomes (CLM); type: in vitro ADME, cynomolgus monkeys; conditions: male, cynomolgus monkey, pooled cynomolgus monkey liver microsomes, pH 7.4, 1 μM compound, 0.50 mg protein/mL, NADPH
Method: as §1, with “CLM” for “HLM”, “from” for “from adult”, “cynomolgus monkeys” for “and female donors”, “452413)” for “452117)”, “mM),” for “nmM),”, “shaking.” for “shaking,”
as §2

[5] = Metabolic stability in mouse liver microsomes (MLM); type: in vitro ADME, CD-1 mice; conditions: male, CD-1, mouse, pooled mouse liver microsomes, pH 7.4, 1 μM compound, 0.50 mg protein/mL, NADPH
Method: as §1, with “MLM” for “HLM”, “from” for “from adult”, “CD-1 mice (XenoTech M1000)” for “and female donors (Corning 452117)”, “mM),” for “nmM),”, “shaking.” for “shaking,”
Data Analysis. The elimination constant (kel), half-life (t1/2) and intrinsic clearance (Clint) were determined in a plot of ln(AUC) versus […], using linear regression analysis.

[6] = molecular target: serotonin transporter (SERT) (Homo sapiens (Human), UniProt P31645); experiment: SERT fluorescent substrate uptake inhibition in transfected cells; type: cell-based; conditions: stably transfected cells expressing SERT
Method: The ability of disclosed compounds to inhibit uptake of monoamines by the serotonin transporter (SERT) was measured using a fluorescent substrate uptake assay in transfected cells (Table 15). […] Considering that inhibitors of SERT are well known to have antidepressant and anxiolytic effects and are among the most commonly prescribed drugs for mood disorders (e.g. fluoxetine, sertraline, etc.), blockade of SERT by certain compounds of the present disclosure is expected to synergize with their NMDAR inhibition to increase therapeutic activity for treating depression and related disorders. […] Further, the ability to tune the ratio between SERT and NMDAR is useful to obtain the optimal therapeutic profile depending on the intended clinical indication.
Uptake Inhibition. The ability of test compounds to block monoamine uptake by SERT was determined using the Neurotransmitter Transporter Uptake Assay Kit manufactured by Molecular Devices (Cat #R8173). Briefly, stably transfected cells expressing SERT were grown and plated into 384-well plates at a concentration of 20,000 cells per well. Plates were then incubated for 16-20 h at 37° C. and 5% CO2. The medium was then aspirated and replaced with 25 μL of assay buffer (20 mM HEPES in HBSS, containing 0.1% BSA) containing the test compounds at the appropriate concentrations. Plates were then centrifuged at 300 rpm for 15 s and then incubated at 37° C. for 30 minutes. At this time, 25 μL of the proprietary fluorescent dye solution was added, the plates were incubated at 37° C. for 60 minutes, and then fluorescence was quantified on a plate reader (excitation wavelength=440 nm, emission wavelength=520 nm). The proprietary dye solution contains a mixture of 1) a fluorescent dye that mimics the endogenous substrate of SERT and is thereby actively transported to the intracellular compartment in the absence of an inhibitor and 2) a masking dye that inhibits the fluorescence of dye 1 in the extracellular compartment. Therefore, the overall fluorescence of the system increases as the fluorescent dye is transported into the cells.

[7] = Metabolic stability in rat liver microsomes (RLM); type: in vitro ADME, Sprague Dawley rats; conditions: male, Sprague Dawley, rat, pooled rat liver microsomes, pH 7.4, 1 μM compound, 0.50 mg protein/mL, NADPH
Method: as §1, with “RLM” for “HLM”, “from” for “from adult”, “Sprague Dawley rats (XenoTech R1000)” for “and female donors (Corning 452117)”, “mM),” for “nmM),”, “shaking.” for “shaking,”
as §2

SMILES | Ki [1] | Clint ([2]; 1 μM compound) | half-life at 1 μM ([2]; both sexes, human, pooled human liver microsomes, pH 7.4, 1 μM compound) | half-life at 1 μM [3] | microsomal CLint at 1 μM [3] | half-life at 1 μM [4] | microsomal CLint at 1 μM [4] | half-life at 1 μM [5] | microsomal CLint at 1 μM [5] | inhibition at 10 µM [6] | half-life at 1 μM [7] | microsomal CLint at 1 μM [7]
CN[C@@]1(c2ccccc2Cl)CCCCC1=O [(R)-ketamine, reference compound] | 2200 nM | – | – | – | – | – | – | – | – | – | – | –
CN[C@]1(c2ccccc2Cl)CCCCC1=O [(S)-ketamine, reference compound] | 700 nM | – | – | – | – | – | – | – | – | – | – | –
N[C@@]1(c2cccc(F)c2)CCCCC1=O [Compound 3R, (R)-2-amino-2-(3-fluorophenyl)cyclohexan-1-one] | – | <9.6 μL/min/m | > 2.42 h | 0.667 h | 34.6 µL/min/mg | 1.85 h | 12.5 µL/min/mg | 2 h | 11.6 µL/min/mg | 1.75% | > 2.42 h | < 9.6 µL/min/mg
